Publication PMC3096752 (Clinical cancer research : an official journal of the …, 2011)

Tests used:
[1] = Alvocidib plasma pharmacokinetics; type: in vivo, human; details: mean ± SD
[2] = test system: patients with B cell malignancies (multiple myeloma, indolent and mantle cell lymphoma); experiment: Phase I 3+3 dose escalation: DLT and MTD; type: in vivo, human
[3] = test system: refractory/relapsed indolent NHL (including follicular, marginal zone and SLL); details: cited from earlier work
mantle cell lymphoma = details: bortezomib alone; cited from earlier work
refractory/relapsed MM = details: cited from earlier work
[4] = Dose Level 1 (n=8 doses): alvocidib 20+20 mg/m^2
[5] = Dose Level 2 (n=6 doses): alvocidib 30+30 mg/m^2
[6] = Dose Level 3 (n=3 doses): alvocidib 30+50 mg/m^2

Compound | CL [1, 4] | K10 [1, 4] [h⁻¹] | V1 [1, 4] | CL [1, 5] | K10 [1, 5] [h⁻¹] | V1 [1, 5] | CL [1, 6] | K10 [1, 6] [h⁻¹] | V1 [1, 6] | V2 [1, 6] | MTD, alvocidib 4 hour infusion ([2]; days 1 and 8, 21 day cycle, after the 30 min bolus, in combination with bortezomib) [mg/m^2] | MTD, alvocidib 30 min bolus infusion ([2]; days 1 and 8, 21 day cycle, in combination with bortezomib) [mg/m^2] | response rates to single agent bortezomib [3] | single-agent activity (response rate) (mantle cell lymphoma) | responses to single-agent bortezomib (refractory/relapsed MM) | MTD, bortezomib ([2]; IV push days 1, 4, 8, 11, 21 day cycle, in combination with alvocidib) [mg/m^2]
CN1CC[C@H](c2c(O)cc(O)c3c(=O)cc(-c4ccccc4Cl)oc23)[C@H](O)C1 [alvocidib] | 13,243 ± 2,540 ml/h/m^2 | 0.803 ± 0.237 | 18,512 ± 8,687 ml/m^2 | 12,825 ± 3,267 ml/h/m^2 | 1.04 ± 0.438 | 14,888 ± 7,685 ml/m^2 | 18,137 ± 8,097 ml/h/m^2 | 0.569 ± 0.169 | 31,380 ± 7,368 ml/m^2 | 48,448 ± 23,397 ml/m^2 | 30 | 30 |  |  |  | 
CC(C)C[C@H](NC(=O)[C@H](Cc1ccccc1)NC(=O)c1cnccn1)B(O)O [bortezomib] |  |  |  |  |  |  |  |  |  |  |  |  | approximately 13.3% | approximately 33% | approximately 35% | 1.3
